Data from patent US11920136B2, “Transglutaminase-mediated conjugation” (Tallac Therapeutics, Inc., priority 2020, dated 2024).

Tests used:
[1] = system: CD19 positive B cells; experiment: Free CpG activity on CD40 expression by CD19+ B cells in human PBMCs (Examples 16-17); type: cell-based; conditions: compared with 12070
Description: (§1) Trima residuals were received from Vitalant and diluted 1:2 with Phosphate Buffered Saline (PBS, Gibco). Diluted blood was split into two tubes and underplayed with 15 mL Ficoll-Paque (GE Healthcare). Tubes were centrifuged for 30 minutes at 400×g. PBMCs were collected from the interface, resuspended and washed in FACS buffer (PBS with 0.5% Bovine Serum Albumin (Gibco)). After one wash, PBMCs were resuspended in Complete RPMI (RPMI+10% FBS).
PBMCs were immediately plated onto a 96-well format (500K/well) in Complete RPMI. Five-fold serial dilutions were added to the cells from 1 uM to 64 pM of CpG polynucleotides at 37° C. under 5% CO2 for 48 hours. Cells were pelleted by centrifugation for five minutes at 400×g and stained at 4° C. in Fixable Viability Dye eFluor 780 (Thermo Fisher) diluted 1:4000 in PBS. Cells were centrifuged and stained at 4° C. in FACS buffer for 30 minutes containing FcR Blocking Reagent (Miltenyi Biotec), anti-CD19, anti-CD20, anti-CD40, anti-HLADR and anti-CD80. Cells were centrifuged and washed twice in FACS buffer and fixed in 0.5% paraformaldehyde. Cells were analyzed on ATTUNE™ NxT Flow Cytometer (Thermo Fisher Scientific), with subsequent data analysis by FLOWJO™ 10.7 (Treestar). […] B cells were identified as CD19+CD20+ cells and level of activation marker was assessed by median fluorescent intensity. […]

[2] = system: CD19+CD20+ B cells; experiment: Anti-CD22 (TNT127):CpG conjugates on human PBMCs, CD40 on CD19+ B cells (Examples 19-20); type: cell-based; conditions: conjugated to antibody TNT127 (DAR1), compared to the 12070 conjugate
Description: Trima residuals were received from Vitalant and diluted 1:2 with Phosphate Buffered Saline (PBS, Gibco). Diluted blood was split into two tubes and underplayed with 15 mL FICOLL® PAQUE medium (GE Healthcare). Tubes were centrifuged for 30 minutes at 400×g. PBMCs were collected from the interface, resuspended and washed in FACS buffer (PBS with 0.5% Bovine Serum Albumin (Gibco)). After one wash, PBMCs were resuspended in Complete RPMI (RPMI+10% FBS). PBMCs were immediately plated onto a 96-well format (500K/well) in Complete RPMI. Five-fold serial dilutions were added to the cells from 100 nM to 6.4 pM conjugated antibody at 37° C. under 5% CO2 for 48 hours. Cells were pelleted by centrifugation for five minutes at 400×g and stained at 4° C. in Fixable Viability Dye eFluor 780 (Thermo Fisher Scientific) diluted 1:4000 in PBS. Cells were centrifuged and stained at 4° C. in FACS buffer for 30 minutes containing FcR Blocking Reagent (Miltenyi Biotec), anti-CD19, anti-CD20, anti-CD40, anti-HLADR and anti-CD80. Cells were centrifuged and washed twice in FACS buffer and fixed in 0.5% paraformaldehyde. Cells were analyzed on ATTUNE™ NxT Flow Cytometer (Thermo Fisher Scientific), with subsequent data analysis by FLOWJO™ 10.7 (Treestar). Dead cells were excluded by gating on the eFluor 780-negative population.
The activity of CD22 antibody-CpG conjugates DAR1 and DAR2 were compared for activity.

[3] = system: EMT6 mouse mammary carcinoma cells; experiment: EMT6 breast cancer model, intratumoral administration; type: in vivo, BALB/c mice; conditions: intratumorally 2 doses every 3 days at 24 uM
Description: 100 uL of suspended cells were subcutaneously implanted into the right flank of 6 week old female BALB/c mice (Charles River). Tumor size was measured and recorded twice a week with calipers starting 7 days post implantation until duration of the study, approximately 25 days later. Tumor volume was calculated using the following formula: (length×width×width)/2. Once tumors reached on average 180 mm^3, approximately 7 days post implantation, mice were randomized by tumor size and treatments were initiated.

[4] = system: B cells; experiment: B cell activation by anti-CD22 (RFB4):CpG conjugates in human PBMCs (Examples 2 and 4); type: cell-based; conditions: for B cell activation (CD19, CD40, CD69, CD86, HLADR expression): RFB4 conjugates, DAR1, 96 hours; for B cell activation as determined by CD80 expression: conjugate to anti-CD22 antibody (SEQ ID NO: 56 and 57), DAR1, compared with conjugate of CpG (SEQ ID NO: 3) and naked CpG
Description: (§2) PBMCs were immediately plated onto a 96-well format (500K/well) in Complete RPMI (RPMI+10% FBS). Five-fold serial dilutions were added to the cells from 100 nM to 6.4 pM of antibody and conjugated antibody and 1 uM to 64 pM of CpG polynucleotides at 37° C. under 5% CO2 for 48 to 96 hours. Cells were pelleted by centrifugation for five minutes at 400×g and stained at 4° C. in Fixable Viability Dye eFluor 780 (Thermo Fisher Scientific) diluted 1:4000 in PBS. Cells were centrifuged and stained at 4° C. in FACS buffer for 30 minutes containing FcR Blocking Reagent (Miltenyi Biotec), anti-CD19, anti-CD20, anti-CD40, anti-HLADR and anti-CD80 for B cell assays and anti-CD14, anti-CD3, anti-CD19, anti-CD14, anti-CD123, anti-CD11 c and anti-CD86 for pDC assays. Cells were centrifuged and washed twice in FACS buffer and fixed in 0.5% paraformaldehyde. CountBright™ Absolute Counting Beads (Thermo Fisher) were added to each well to count the number of cells. Cells were analyzed on ATTUNE™ NxT Flow Cytometer (Thermo Fisher Scientific), with subsequent data analysis by Flowjo 10.7 (Treestar). Dead cells were excluded by gating on the eFluor 780-negative population. Lineage specific cells were first excluded (CD19, CD3, CD14) prior to gating CD123^+CD11c^− cells to identify pDC and gating CD19^+, CD20^+ or CD19^+CD20^+ cells to identify B cells.
as §1, with “1:4” for “1:2”, “interface and” for “interface,”, “resuspended” for “resuspended and washed”, “(Gibco)).” for “(Gibco)). After one wash, PBMCs were resuspended in Complete RPMI (RPMI+10% FBS).”
as §2, with “antiCD11” for “anti-CD11”, “COUNTBRIGHT™” for “CountBright™”, “Fisher Scientific)” for “Fisher)”
Various B-cell and pDC specific antibodies were conjugated with CpG 12070 (SEQ ID NO: 3), CpG (SEQ ID NOs: 9, 12, 20, 27 and 28), all with the DAR1 configuration, at their C-terminus heavy chain Q-tag ([…]) (SEQ ID NO: 49) via transglutaminase reaction. The conjugated antibodies were subsequently tested for their effects on proliferation and/or activation. […] As shown in FIGS. 5A-5D, the anti-CD22-CpG antibodies enhanced the activation of B cells as compared to naked CpG polynucleotide 12070 (SEQ ID NO: 3) and human IgG control antibody after 96 hours. As determined by CD19, CD40, CD69, CD86, and HLADR expression, only anti-CD22-CpG and CpG alone induced B cell activation. Direct delivery of CpG by a targeting antibody results in higher activation as compared to CpG alone.

Row | Substance | B cell activation as determined by CD80 expression [4] | other results
1 | 7-6: CpG oligonucleotide: "CpG 7-6 (SEQ ID NO:34)" (DNA UCGTCGTGTCGTTT; chemically modified, pattern not given here) | – | CD40 expression in PBMC from three donors (D559, D804 and D643) [1]: higher activities; CD40 expression [2]: substantially better activity
2 | CpG-4253: "the free CpG (CpG-4253)"; apparently "4523 murine CpG oligonucleotide", "tucgtcgtgacgtt-c3" (SEQ ID NO:121) (DNA TUCGTCGTGACGTT; 3' C3 spacer, chemistry not fully specified; listed as Mus musculus) | – | anti-tumor potency [3]: showed anti-tumor potency
3 | SEQ ID NO: 9: "modified CpGs"; tested "as an antibody-CpG conjugate" "to anti-CD22 antibody (SEQ ID NO: 56 and SEQ ID NO: 57)" (DNA UCGTCGTGTCGTTT; modified CpG; (1)..(14) Linkages as shown in Table 2 of the specification; (1)..(14) Modified as shown in Table 2 of the specification) | increased B cell activation | B cell activation (CD19, CD40, CD69, CD86, HLADR expression) [4]: enhanced activity
4 | SEQ ID NO: 12: "modified CpGs"; tested "as an antibody-CpG conjugate" "to anti-CD22 antibody (SEQ ID NO: 56 and SEQ ID NO: 57)" (DNA UCGTCGTGTCGTTT; modified CpG; (1)..(14) Linkages as shown in Table 2 of the specification; (1)..(14) Modified as shown in Table 2 of the specification) | increased B cell activation | –
5 | SEQ ID NO: 13: "modified CpGs"; tested "as an antibody-CpG conjugate" "to anti-CD22 antibody (SEQ ID NO: 56 and SEQ ID NO: 57)" (DNA UCGTCGTGTCGTTT; modified CpG; (1)..(14) Linkages as shown in Table 2 of the specification; (1)..(14) Modified as shown in Table 2 of the specification) | increased B cell activation | –
6 | SEQ ID NO: 15: "modified CpGs"; tested "as an antibody-CpG conjugate" "to anti-CD22 antibody (SEQ ID NO: 56 and SEQ ID NO: 57)" (DNA UCGTCGTGTCGTT; modified CpG; (1)..(13) Linkages as shown in Table 2 of the specification; (1)..(13) Modified as shown in Table 2 of the specification) | increased B cell activation | –
7 | SEQ ID NO: 20: "modified CpGs"; tested "as an antibody-CpG conjugate" "to anti-CD22 antibody (SEQ ID NO: 56 and SEQ ID NO: 57)" (DNA UCGTCGTGTCGTT; modified CpG; (1)..(13) Linkages as shown in Table 2 of the specification; (1)..(13) Modified as shown in Table 2 of the specification) | increased B cell activation | B cell activation (CD19, CD40, CD69, CD86, HLADR expression) [4]: enhanced activity
